In one test the test system is Male Sprague-Dawley rats. Kind of test: Formalin model of acute tonic pain. Type of test: in vivo, rat. Here is the method:
Male Sprague-Dawley rats were given a subcutaneous injection of 50 μl of 2.5% formalin into the plantar surface of one hindpaw using a 27 gauge syringe needle, and nociceptive responses were measured for the next 60 min. Compound or vehicle was administered (ip. or s.c.) 15-45 minutes prior to the formalin injection. A nociceptive score was determined for each 5 min block by measuring the amount of time spent in each of four behavioral categories: 0, the injected hindpaw is indistinguishable from that of the contralateral paw; 1, the injected paw has little or no weight placed on it; 2, the injected paw is elevated and is not in contact with any surface; 3, the injected paw is licked, bitten, or shaken. A weighted nociceptive score, ranging from 0 to 3 was calculated by multiplying the time spent in each category by the category weight, summing these products, and dividing by the total time for each 5 min block of time (Coderre et al., Pain 1993; 54: 43). On the basis of the resulting response patterns, 2 phases of nociceptive behaviour were identified and scored: first phase (P1; 0-5 min) and second phase (P2; 11-40 min).
Statistical analysis was performed using Prism™ 4.01 software package (GraphPad, San Diego, Calif., USA). The difference in response levels between treatment groups and control vehicle group was analyzed using an ANOVA followed by Bonferroni's method for post-hoc pair-wise comparisons. A p value <0.05 was considered to be significant.
Animals were treated with vehicle (VEH) or Compound 5 (50 mg/kg i.p.; CMP) 10-20 minutes before the intraplantar injection of 2.5% formalin, as described above.

The next test deals with PC12 (TrkA & p75). Kind of test: 125I-NGF binding displacement in PC12 cells. Further details: species or system rat. The following applies: PC12 cells expressing TrkA and p75; result in words. Here is the method:
The method for acquiring the PC12 data described in Table 1 is described herein in Example 1. Each experiment was done at least once with an n value of 4 for each data point. (n/a=not acquired)
All cells were incubated at 37° C. in 5% CO2. PC12 cells were maintained in RPMI-1640 medium supplemented with 10% fetal bovine serum (FBS). A875 human melanoma cells were maintained in DMEM with 10% FBS. HEK 293 cells were stably transfected with human TrkA plasmid (see below) and maintained in DMEM with 10% FBS and G418 (600 μg/mL) for selection.
NGF binding was evaluated using methods familiar to those who are skilled in the art. Briefly, cells expressing one or both NGF receptors (PC12: TrkA+p75; A875: p75 alone; HEK_trkA: TrkA alone) were harvested by replacing the medium with calcium-magnesium free balanced salt (Grey's) solution and incubating at 37° C. for 15 min. For NGF binding, cells were resuspended at a concentration of 2×10^6 cells/mL in HEPES-Krebs-Ringer (HKR) buffer (10 mM HEPES; 125 mM NaCl; 4.8 mM KCl; 1.3 mM CaCl2; 1.2 mM MgSO4; 1.2 mM KH2PO4; 1 mg/ml BSA; 1 mg/ml glucose; pH 7.4) and exposed to ^125I-NGF (˜0.1 nM) in the presence or absence of varying concentrations of the compound. Non-specific binding was determined for reference by incubating ^125I-NGF with an excess of non-radioactive NGF in the abence of compound. Following a two-hour incubation period at 4° C., ^125I-NGF bound to the cells was quantified in a gamma radiation counter following separation from unbound NGF by filtration or centrifugation through glycerol (10% in HKR). Inhibition of binding was calculated as a percent of the specific binding (calculated as the differential between ^125I-NGF binding in the absence and presence of an excess of non-radioactive NGF without compound). Dose-response inhibition curves were typically generated with seven concentrations of a given compound, with three replicates for each concentration. For most compounds, multiple dose-response curves were generated.
The IC50 data shown in Table 1 were acquired using the procedure described herein using PC12 cells.

The test system of test [1] is NGF-induced neurite outgrowth, PC12 cells. The test can be described thus: NGF-induced neurite outgrowth of PC12 cells. The following applies: 25 μM compound, 5 ng/ml NGF, mean±SEM, n=8; no inhibition=100%, maximal inhibition=0%. Type of test: cell-based, rat. Here is the method: This assay was run as a further functional marker of NGF antagonism and takes advantage of the differentiation of PC12 cells (neurite outgrowth) induced by NGF. Cultures of PC12 cells were grown on Terasaki plates pre-coated with poly-D-lysine. Cells were exposed to NGF (1-50 (preferably 5) ng/ml) to induce neurite outgrowth as described elsewhere [L A Greene & A S Tischler, Establishment of a noradrenergic clonal line of rat adrenal pheochromocytoma cells which respond to nerve growth factor, Proc Natl Acad Sci USA. 1976 July; 73(7): 2424-2428]. In addition to NGF, cells were exposed to varying concentration of the compounds or vehicle. Following 4 days of exposure to NGF in the presence or absence of compound, neurite outgrowth was quantified. A neurite was scored if its caliber from origin to terminal was approximately the same and the length was equal to or greater than 1.5 the cell body diameter. The number of neurite bearing cells per total number of viable cells was calculated for each condition; the number of cells with neurites in the presence of NGF (without compound exposure) was considered to represent maximal (100%) outgrowth, to which the inhibitory effect of compounds of the invention on NGF-induced outgrowth was compared.

For a further test, the system named is Mice. The test can be described thus: Writhing test (acetic acid abdominal contraction test). It counts as in vivo, mouse. As to the method: The acetic acid abdominal contraction test (Martinez et al., Pain 1999; 81: 179) was used to determine the efficacy of different compounds in a model of acute visceral chemical nociception. […] Compound or vehicle was administered (i.p. or s.c.) 15-45 minutes prior to the acetic acid injection. Each episode of writhing is characterized by a lengthwise stretching of the torso with a concomitant arching of the back.
Statistical analysis was performed using Prism™ 4.01 software package (GraphPad, San Diego, Calif., USA). The difference in response levels between treatment groups and control vehicle group was analyzed using an ANOVA followed by Bonferroni's method for post-hoc pair-wise comparisons. A p value <0.05 was considered to be significant
Animals were treated with vehicle (VEH) or Compound 5 (100 mg/kg i.p.; CMP) 10-20 minutes before the intraperitoneal injection of acetic acid, as described above.
A general note: Writhing tests count abdominal constrictions after an irritant is injected.

Molecules are shown by their SMILES.

The results in this text go back to US20070123514A1, “Methods of modulating neurotrophin-mediated activity” (PainCeptor Pharma Corporation, priority 2005, published 2007).

Turning to `O=C(O)c1ccc(Cl)c(N2C(=O)c3cccc4cc([N+](=O)[O-])cc(c34)C2=O)c1` [Compound 5, 4-Chloro-3-(5-nitro-1,3-dioxo-1H,3H-benzo[de]isoquinolin-2-yl)-benzoic acid], the “formalin-induced spontaneous responses, Phase I” value in the test on Male Sprague-Dawley rats (50 mg/kg i.p. 10-20 min before 2.5% formalin, vehicle 148±9, n=8) is reported as 59±15. In addition, in the test on Male Sprague-Dawley rats (50 mg/kg i.p. 10-20 min before 2.5% formalin, vehicle 180±6, n=8), the “formalin-induced spontaneous responses, Phase II” value is 61±19. The “antinociceptive effect in the Formalin Test” value with Male Sprague-Dawley rats (50 mg/kg i.p., result in words, p<0.001 vs vehicle, 50 mg/kg) is “significant antinociceptive effects”. Also, the “blocking of NGF binding (dose-response curve)” value in the test with PC12 (TrkA & p75) is reported as “effectively block NGF binding”. Also, the “NGF-induced neurite outgrowth, % of NGF-only control” value in test [1] is 65%±17%. Moreover, the “chemically-induced abdominal contractions (number in 30 minutes)” value with Mice (100 mg/kg i.p. 10-20 min before acetic acid, vehicle 58±3, n=6) was determined as 14±6. In addition, the “antinociceptive effect in the Writhing Test” value in the test on Mice (100 mg/kg i.p., result in words, p<0.001 vs vehicle, 100 mg/kg) is “significant antinociceptive effects”.
